Measurements published in US12077503B2, “Substituted cyclic amides and their use as herbicides” (FMC CORPORATION, priority 2015, dated 2024).

Tests used:
Assay type in all cases: in vivo
[1] = system: ryegrass, Italian (Italian ryegrass, Lolium multiflorum); experiment: Test A preemergence; details: for Ryegrass, Italian plant response rating (0 to 100 scale, 0 is no effect, 100 is complete control): visual injury approx. 10 d
Summary of the method: (§1)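 Treatment is preemergence as a directed soil spray after planting, or postemergence at the one- to two-leaf stage, with test chemical in a non-phytotoxic solvent mixture plus surfactant. Plants stay in the greenhouse about 10 d before visual injury scoring on a 0 to 100 scale versus untreated controls.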

[2] = system: giant foxtail (Setaria faberii); experiment: Test A preemergence; details: for Foxtail, Giant plant response rating (0 to 100 scale, 0 is no effect, 100 is complete control): visual injury approx. 10 d
Summary of the method: as §1

[3] = system: ragweed (common ragweed, Ambrosia elatior); experiment: Test A preemergence; details: for Ragweed plant response rating (0 to 100 scale, 0 is no effect, 100 is complete control): visual injury approx. 10 d
Summary of the method: as §1

[4] = system: barnyardgrass (Echinochloa crus-galli); experiment: Test A preemergence; details: for Barnyardgrass plant response rating (0 to 100 scale, 0 is no effect, 100 is complete control): visual injury approx. 10 d
Summary of the method: as §1

[5] = system: pigweed (Amaranthus retroflexus); experiment: Test A preemergence; details: for Pigweed plant response rating (0 to 100 scale, 0 is no effect, 100 is complete control): visual injury approx. 10 d
Kochia (Kochia scoparia) [6] = experiment: Test A preemergence; details: for Kochia plant response rating (0 to 100 scale, 0 is no effect, 100 is complete control): visual injury approx. 10 d
Summary of the method: as §1

[7] = system: ryegrass, Italian (Italian ryegrass, Lolium multiflorum); experiment: Test A postemergence
Summary of the method: as §1

[8] = system: blackgrass (Alopecurus myosuroides); experiment: Test A postemergence
Summary of the method: as §1

[9] = system: giant foxtail (Setaria faberii); experiment: Test A postemergence
Summary of the method: as §1

[10] = system: ragweed (common ragweed, Ambrosia elatior); experiment: Test A postemergence
Summary of the method: as §1

corn (Zea mays) = experiment: Test A postemergence
Summary of the method: as §1

[11] = system: barnyardgrass (Echinochloa crus-galli); experiment: Test A postemergence
Summary of the method: as §1

[12] = system: pigweed (Amaranthus retroflexus); experiment: Test A postemergence
Summary of the method: as §1

[13] = system: Galium (catchweed bedstraw, Galium aparine); experiment: Test A postemergence
Summary of the method: as §1

Kochia (Kochia scoparia) [14] = experiment: Test A postemergence
Summary of the method: as §1

[15] = system: wheat (Triticum aestivum); experiment: Test A postemergence
Summary of the method: as §1

[16] = system: ducksalad (Heteranthera limosa); experiment: Test B flooded paddy test; details: Flood, 250 g ai/ha; 0 to 100 scale where 0 is no effect and 100 is complete control; 13 to 15 d
Summary of the method: (§2)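 Percent control, visually estimated after 13–15 d in the greenhouse on a 0–100 basis, compares treated pots with untreated ones; compound was put into paddy water 3 cm above the soil when plants had two leaves.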

rice (Oryra sativa) = experiment: Test B flooded paddy test; details: Flood, 250 g ai/ha; 0 to 100 scale where 0 is no effect and 100 is complete control; 13 to 15 d
Summary of the method: as §2

[17] = system: barnyardgrass (Echinochloa crus-galli); experiment: Test B flooded paddy test; details: Flood, 250 g ai/ha; 0 to 100 scale where 0 is no effect and 100 is complete control; 13 to 15 d
Summary of the method: as §2

[18] = system: sedge, umbrella (small-flower umbrella sedge, Cyperus difformis); experiment: Test B flooded paddy test; details: Flood, 250 g ai/ha; 0 to 100 scale where 0 is no effect and 100 is complete control; 13 to 15 d
Summary of the method: as §2

[19] = 125 g ai/ha, Preemergence, visual injury after approximately 10 d, 0 to 100 scale where 0 is no effect and 100 is complete control
[20] = 125 g ai/ha, postemergence, visual rating after approx. 10 d, 0 to 100 scale (0 no effect, 100 complete control)
[21] = Postemergence, 500 g ai/ha, 0 to 100 scale where 0 is no effect and 100 is complete control
[22] = 500 g ai/ha, preemergence, 0 to 100 scale, 0 = no effect, 100 = complete control
[23] = 500 g ai/ha, postemergence, visual injury, 0 to 100 scale (0 no effect, 100 complete control), approx. 10 d

O=C1NCC(c2cc(C(F)(F)F)ccc2F)C1C(=O)Nc1ccccc1F (centres unmarked) [Compound 593]
30: Plant response rating, Ryegrass, Italian [7, 21] | Plant response rating, Corn (corn (Zea mays); [20])
15: Plant response rating, Rice (rice (Oryra sativa))
50: Ryegrass, Italian plant response rating (0 to 100 scale, 0 is no effect, 100 is complete control) ([1]; Preemergence, 500 g ai/ha) | Plant response rating, Blackgrass [8, 20]
80: Plant response rating, Ducksalad [16]
90: Plant response rating, Foxtail, Giant [2, 19] | Foxtail, Giant plant response rating (0 to 100 scale, 0 is no effect, 100 is complete control) ([2]; Preemergence, 500 g ai/ha) | Plant response rating, Barnyardgrass [4, 19] | Barnyardgrass plant response rating (0 to 100 scale, 0 is no effect, 100 is complete control) ([4]; Preemergence, 500 g ai/ha) | Plant response rating, Foxtail, Giant [9, 20] | Plant response rating, Foxtail, Giant [9, 21] | Plant response rating, Barnyardgrass [11, 20] | Plant response rating, Barnyardgrass [11, 21]
60: Plant response rating, Blackgrass [8, 21] | Plant response rating, Barnyardgrass [17]
40: Plant response rating, Wheat [15, 21]
70: Plant response rating, Corn (corn (Zea mays); [21])
0: Plant response rating, Ryegrass, Italian [1, 19] | Plant response rating, Ragweed [3, 19] | Ragweed plant response rating (0 to 100 scale, 0 is no effect, 100 is complete control) ([3]; Preemergence, 500 g ai/ha) | Pigweed plant response rating (0 to 100 scale, 0 is no effect, 100 is complete control) ([5]; Preemergence, 500 g ai/ha) | Plant response rating, Kochia (Kochia (Kochia scoparia) [6]; [19]) | Kochia plant response rating (0 to 100 scale, 0 is no effect, 100 is complete control) (Kochia (Kochia scoparia) [6]; Preemergence, 500 g ai/ha) | Plant response rating, Ryegrass, Italian [7, 20] | Plant response rating, Ragweed [10, 20] | Plant response rating, Ragweed [10, 21] | Plant response rating, Pigweed [12, 20] | Plant response rating, Pigweed [12, 21] | Plant response rating, Galium [13, 20] | Plant response rating, Kochia (Kochia (Kochia scoparia) [14]; [20]) | Plant response rating, Kochia (Kochia (Kochia scoparia) [14]; [21]) | Plant response rating, Wheat [15, 20] | Plant response rating, Sedge, Umbrella [18]
20: Plant response rating, Galium [13, 21]

C#CCN1CC(c2cccc(C(F)(F)F)c2)C(C(=O)Nc2ccccc2F)C1=O (centres unmarked) [Compound 607]
60: Plant response rating, Foxtail, Giant [9, 21] | Plant response rating, Barnyardgrass [11, 21]
90: Foxtail, Giant plant response rating (0 to 100 scale, 0 is no effect, 100 is complete control) ([2]; Preemergence, 500 g ai/ha)
30: Barnyardgrass plant response rating (0 to 100 scale, 0 is no effect, 100 is complete control) ([4]; Preemergence, 500 g ai/ha)
20: Plant response rating, Foxtail, Giant [9, 20] | Plant response rating, Barnyardgrass [11, 20] | Plant response rating, Wheat [15, 21]
0: Plant response rating, Ryegrass, Italian [1, 19] | Ryegrass, Italian plant response rating (0 to 100 scale, 0 is no effect, 100 is complete control) ([1]; Preemergence, 500 g ai/ha) | Plant response rating, Ragweed [3, 19] | Ragweed plant response rating (0 to 100 scale, 0 is no effect, 100 is complete control) ([3]; Preemergence, 500 g ai/ha) | Plant response rating, Barnyardgrass [4, 19] | Plant response rating, Pigweed [5, 19] | Pigweed plant response rating (0 to 100 scale, 0 is no effect, 100 is complete control) ([5]; Preemergence, 500 g ai/ha) | Plant response rating, Kochia (Kochia (Kochia scoparia) [6]; [19]) | Kochia plant response rating (0 to 100 scale, 0 is no effect, 100 is complete control) (Kochia (Kochia scoparia) [6]; Preemergence, 500 g ai/ha) | Plant response rating, Ryegrass, Italian [7, 20] | Plant response rating, Ryegrass, Italian [7, 21] | Plant response rating, Blackgrass [8, 20] | Plant response rating, Blackgrass [8, 21] | Plant response rating, Ragweed [10, 20] | Plant response rating, Ragweed [10, 21] | Plant response rating, Corn (corn (Zea mays); [20]) | Plant response rating, Corn (corn (Zea mays); [21]) | Plant response rating, Pigweed [12, 20] | Plant response rating, Pigweed [12, 21] | Plant response rating, Galium [13, 20] | Plant response rating, Galium [13, 21] | Plant response rating, Kochia (Kochia (Kochia scoparia) [14]; [20]) | Plant response rating, Kochia (Kochia (Kochia scoparia) [14]; [21]) | Plant response rating, Wheat [15, 20] | Plant response rating, Rice (rice (Oryra sativa)) | Plant response rating, Barnyardgrass [17] | Plant response rating, Sedge, Umbrella [18]
80: Plant response rating, Foxtail, Giant [2, 19]
50: Plant response rating, Ducksalad [16]

O=C1NCC(c2ccc(F)cc2F)C1C(=O)Nc1ccccc1F (centres unmarked) [Compound 620]
50: Plant response rating, Foxtail, Giant [9, 21]
0: Plant response rating, Ryegrass, Italian [1, 19] | Plant response rating, Ryegrass, Italian [1, 22] | Plant response rating, Ragweed [3, 19] | Plant response rating, Ragweed [3, 22] | Plant response rating, Pigweed [5, 19] | Plant response rating, Pigweed [5, 22] | Plant response rating, Kochia (Kochia (Kochia scoparia) [6]; [19]) | Plant response rating, Ryegrass, Italian [7, 20] | Plant response rating, Ryegrass, Italian [7, 21] | Plant response rating, Blackgrass [8, 20] | Plant response rating, Blackgrass [8, 21] | Plant response rating, Ragweed [10, 20] | Plant response rating, Ragweed [10, 21] | Plant response rating, Corn (corn (Zea mays); [20]) | Plant response rating, Corn (corn (Zea mays); [21]) | Plant response rating, Pigweed [12, 20] | Plant response rating, Pigweed [12, 21] | Plant response rating, Galium [13, 20] | Plant response rating, Kochia (Kochia (Kochia scoparia) [14]; [20]) | Plant response rating, Kochia (Kochia (Kochia scoparia) [14]; [21]) | Plant response rating, Wheat [15, 20] | Plant response rating, Wheat [15, 21] | Plant response rating, Rice (rice (Oryra sativa)) | Plant response rating, Sedge, Umbrella [18]
70: Plant response rating, Barnyardgrass [4, 19]
20: Plant response rating, Kochia (Kochia (Kochia scoparia) [6]; [22]) | Plant response rating, Barnyardgrass [11, 20] | Plant response rating, Galium [13, 21]
30: Plant response rating, Foxtail, Giant [9, 20]
60: Plant response rating, Barnyardgrass [11, 21]
65: Plant response rating, Ducksalad [16]
90: Plant response rating, Foxtail, Giant [2, 22]
80: Plant response rating, Foxtail, Giant [2, 19] | Plant response rating, Barnyardgrass [4, 22]
10: Plant response rating, Barnyardgrass [17]

C=CCOc1cccc(C2CNC(=O)C2(CC=C)C(=O)Nc2cccc(F)c2F)c1 (centres unmarked) [Compound 631]
0: Plant response rating, Ryegrass, Italian [1, 19] | Plant response rating, Ryegrass, Italian [1, 22] | Plant response rating, Foxtail, Giant [2, 19] | Plant response rating, Foxtail, Giant [2, 22] | Plant response rating, Ragweed [3, 19] | Plant response rating, Ragweed [3, 22] | Plant response rating, Barnyardgrass [4, 19] | Plant response rating, Barnyardgrass [4, 22] | Plant response rating, Pigweed [5, 19] | Plant response rating, Pigweed [5, 22] | Plant response rating, Kochia (Kochia (Kochia scoparia) [6]; [19]) | Plant response rating, Kochia (Kochia (Kochia scoparia) [6]; [22]) | Plant response rating, Ryegrass, Italian [7, 20] | Plant response rating, Ryegrass, Italian [7, 23] | Plant response rating, Blackgrass [8, 20] | Plant response rating, Blackgrass [8, 21] | Plant response rating, Foxtail, Giant [9, 20] | Plant response rating, Foxtail, Giant [9, 23] | Plant response rating, Ragweed [10, 20] | Plant response rating, Ragweed [10, 23] | Plant response rating, Corn (corn (Zea mays); [20]) | Plant response rating, Corn (corn (Zea mays); [21]) | Plant response rating, Barnyardgrass [11, 20] | Plant response rating, Barnyardgrass [11, 21] | Plant response rating, Pigweed [12, 20] | Plant response rating, Pigweed [12, 23] | Plant response rating, Galium [13, 20] | Plant response rating, Galium [13, 23] | Plant response rating, Kochia (Kochia (Kochia scoparia) [14]; [20]) | Plant response rating, Kochia (Kochia (Kochia scoparia) [14]; [23]) | Plant response rating, Wheat [15, 20] | Plant response rating, Wheat [15, 23] | Plant response rating, Ducksalad [16] | Plant response rating, Rice (rice (Oryra sativa)) | Plant response rating, Barnyardgrass [17] | Plant response rating, Sedge, Umbrella [18]
